In data set [1] the test system is THP-1 (Human acute monocytic leukemia cell line). The experiment in a line: Anti-cancer screening, THP-1 cell proliferation. Format: cell-based. Particulars: for IC50: concentration required to inhibit 50% of the cell proliferation; for IC90: concentration required to inhibit 90% of the cell proliferation, read-out: MIC.
For data set [2], the system named is M. Tuberculosis. The experiment in a line: Anti TB ex vivo infection model, dormant. Format: cell-based. Conditions: Mycobacterium tuberculosis.
The subject of data set [3] is A549 (Human lung adenocarcinoma epithelial cell line). Briefly: Anti-cancer screening, A549 cell proliferation. Particulars: for IC50: concentration required to inhibit 50% of the cell proliferation; for IC90: concentration required to inhibit 90% of the cell proliferation, read-out: MIC. The format is cell-based.
Data set [4] relates to M. Tuberculosis. The experiment in a line: Anti TB ex vivo infection model, active. The format is cell-based. Conditions: Mycobacterium tuberculosis.
The subject of data set [5] is Panc-1 (Human pancreas carcinoma cell line). The experiment in a line: Anti-cancer screening, Panc-1 cell proliferation. The format is cell-based. Conditions: for IC50: concentration required to inhibit 50% of the cell proliferation; for IC90: concentration required to inhibit 90% of the cell proliferation, read-out: MIC.
For data set [6], the system named is M. Tuberculosis H37Ra (DORMANT). Briefly: Anti TB in vitro, dormant. The format is cell-based, Mycobacterium tuberculosis H37Ra. Particulars: Mycobacterium tuberculosis, In Vitro, H37Ra DORMANT; for IC50: read-out: IC 50; for MIC: read-out: MIC.
The test system of data set [7] is M. Tuberculosis H37Ra (ACTIVE). The experiment in a line: Anti TB in vitro, active. Particulars: Mycobacterium tuberculosis, In Vitro, H37Ra ACTIVE; for IC50: read-out: IC 50; for MIC: read-out: MIC. The format is cell-based, Mycobacterium tuberculosis H37Ra.
Data set [8] concerns HeLa (Human Cervix epithelioid carcinoma cell line). Briefly: Anti-cancer screening, HeLa cell proliferation. Format: cell-based. Particulars: for IC50: concentration required to inhibit 50% of the cell proliferation; for IC90: concentration required to inhibit 90% of the cell proliferation, read-out: MIC.

Structures are written as SMILES. Converted amounts (≈) assume the structure as drawn.

For the molecule `COC(=O)CC[C@@H](C)C1CCC2C3C([C@H](n4nnc5ccccc54)C(=O)[C@@]21C)[C@@]1(C)CC[C@@H](OC(C)=O)C[C@H]1C[C@H]3OC(C)=O` (stereo partly drawn) [Compound 8, (3R,5S,7R,10S,11S,13R)-11-(1H-benzo[d][1,2,3]triazol-1-yl)-17-((R)-5-methoxy-5-oxopentan-2-yl)-10,13-dimethyl-12-oxohexadecahydro-1H-cyclopenta[a]phenanthrene-3,7-diyl diacetate], the melting point lay within 106 to 109 °C. Besides, in data set [1], the IC50 turned out to be 29.9 µg/mL and the IC90 was more than 100 µg/mL. In the data set with M. Tuberculosis [2], this molecule gave an IC50 of 1.65 µg/mL and a minimum inhibitory concentration (MIC) of 8.16 µg/mL. In addition, in [3], the IC50 amounted to 20 µg/mL and the IC90 is more than 100 µg/mL. Moreover, in the data set with M. Tuberculosis [4], the IC50 turned out to be 1.11 µg/mL and the minimal inhibitory concentration (MIC) amounted to 8.6 µg/mL. Also, in [5], the IC50 came out at 50 µg/mL and the IC90 is more than 100 µg/mL. Besides, in data set [6], the IC50 worked out at 1.27 µg/mL and the minimal inhibitory concentration (MIC) came to 7.15 µg/mL. In data set [7], the IC50 was found to be 1.08 µg/mL and the MIC is 9.79 µg/mL. Further, in [8], the IC50 turned out to be 20.3 µg/mL and the IC90 was more than 100 µg/mL.
With `COC(=O)CC[C@@H](C)C1CCC2C3C([C@H](NC(=O)C4CCCN4C(=O)OC(C)(C)C)C(=O)[C@@]21C)[C@@]1(C)CC[C@@H](OC(C)=O)C[C@H]1C[C@H]3OC(C)=O` (stereo partly drawn) [Compound 9, (3R,5S,7R,10S,11S,13R)-11-(1-(tert-butoxycarbonyl)pyrrolidine-2-carboxamido)-17-((R)-5-methoxy-5-oxopentan-2-yl)-10,13-dimethyl-12-oxohexadecahydro-1H-cyclopenta[a]phenanthrene-3,7-diyldiacetate], the melting point was in the range of 114 to 118 °C. In [1], the IC50 was 46 µg/mL (≈ 64.1 µM) and the IC90 was more than 100 µg/mL. In the data set with M. Tuberculosis [2], this molecule gave an IC50 of 3.42 µg/mL (≈ 4.77 µM) and an MIC of 26.3 µg/mL (≈ 36.7 µM). In data set [3], the IC50 came to 52 µg/mL (≈ 72.5 µM) and the IC90 is more than 100 µg/mL. In the data set on M. Tuberculosis [4], this molecule came in with an IC50 of 4.16 µg/mL (≈ 5.8 µM) and an MIC of 26.8 µg/mL (≈ 37.4 µM). In [5], the IC50 turned out to be 15 µg/mL (≈ 20.9 µM) and the IC90 is more than 100 µg/mL. For the same molecule, in [6], the IC50 came out at 2.02 µg/mL (≈ 2.82 µM) and the MIC worked out at 8.91 µg/mL (≈ 12.4 µM). Besides, in data set [7], the IC50 came out at 0.92 µg/mL (≈ 1.28 µM) and the MIC amounted to 9.41 µg/mL (≈ 13.1 µM). Besides, in data set [8], the IC50 came to 18.6 µg/mL (≈ 25.9 µM) and the IC90 was more than 100 µg/mL.

As a reminder, the MIC is the smallest concentration in the dilution series that meets the test's criterion for growth inhibition. For orientation: melting point means the temperature, or range, at which the solid turns liquid.

(Values after patent US10000527B2, “11-substituted bile acid derivatives, process for the preparation thereof and use of these compounds as medicaments” (priority 2013, dated 2018).)
